Measured values taken from EP0403957A2, “Optical active 1,4-dihydropyridine derivates” (FUJIREBIO INC., priority 1989, dated 1990).
Like-named read-outs stand apart in the source and are kept apart here.

Experiments:
[1] = system: spontaneously hypertensive rats (aparalytic SHR; male); assay: Test for hypotensive activity; assay type: in vivo; settings: for HR / T 1/2 / Peak: 300 µg/kg into the abdominal aorta of SHR; for MaxΔMBP: 300 µg/kg into the abdominal aorta of SHR through a canula, blood pressure by pressure transducer; for T 1/2: half time of the hypotensive effect; for Peak: time of peak of the hypotensive effect
Experimental: The test was carried out by employing spontaneously hypertensive rats (aparalytic SHR; male) according to Nakao et al method.
300 µg/kg of the compound to be tested was administrated into the abdominal aorta of SHR through a canula (previously inserted). The blood pressures in the whole body of the rats were measured with a pressure transducer (MPU-0.5, made by Nihon Koden K.K.).

[2] = system: thoracic aortas of rabbits; assay: Test for activity of inhibiting KCl-induced contraction; assay type: cell-based, rabbits (Japanese white rabbit; male); settings: 3x10⁻⁶ M compound; 30 mM KCl; helical strips in Krebs-Henseleit solution at 37°C; determined in 60 minutes
Experimental: Herical strips of thoracic aortas of rabbits (Japanese white rabbit; male) were mounted vertically in organ baths of Krebs-Henselit solution at 37°C for 90 minutes, and then 30 mM of KCl was added to the baths. After 30 minutes, the compound to be tested was added to the baths, and the variations in the tension were recorded by an isometric kymograph, so that the inhibitory activity of the compound was determined in 60 minutes.

platelet rich plasma = assay: Test for platelet aggregation-inhibiting activity in rabbit platelet rich plasma; assay type: cell-based, rabbit (Japanese white; male); settings: Oryctolagus cuniculus, 0.5 h, 30 minutes incubation in PRP
Experimental: The mixture was centrifuged at 1100 rpm at 20°C for 15 minutes. The upper layer is a platelet rich plasma (RRP), and the lower layer was centrifuged at 2500 rpm at 20°C for 10 minutes, so that a platelet poor plasma (PPP) was obtained.
10 µℓ of a solution of the compound to be tested with a concentration of 10⁻⁴ moℓ/ℓ was added to 200 µℓ of PRP, and the mixture was subjected to incubation for 30 minutes. To the mixture was added 10 µℓ of a platelet activating factor (PAF)(10 µg/mℓ), or arachidonic acid (AA)(1 mM at final concentration). The extent of the aggregation was measured by Agricometer (NKK, PAT-4A).

Compound | HR [1] [beats/min] | MaxΔMBP [1] [mmHg] | T 1/2 [1] [min] | Peak [1] [min] | Inhibitory Effect on KCℓ-induced contraction(%) [2] [%] | IC50 (platelet rich plasma; aggregation induced by platelet activating factor (PAF) 10 µg/ml, read-out: IC₅₀ (M) PAF(10 µg/ml)) [M] | IC50 (platelet rich plasma; Platelet, aggregation induced by arachidonic acid (AA) 1 mM at final concentration, read-out: IC₅₀ (M) AA(1 mM)) [M]
(-)-3-[4-(-(1-imidazolylmethyl)phenyl]-2-propen-1-yl methyl-1, 4-dihydro-2,6-dimethyl-4-(3-nitrophenyl)pyridine-3,5-dicarboxylate [Example 37] | 3.7 | 10.8 | 0.4 | 0.6 | 16.8 ± 9.8 | – | –
COC(=O)C1=C(C)NC(C)=C(C(=O)OC/C=C/c2ccc(Cn3ccnc3)cc2)C1c1cccc([N+](=O)[O-])c1 (single isomer, unassigned; (+)) [Example 36, (+)-3-[4-(1-imidazolylmethyl)phenyl]-2-propen-1-yl methyl-1,4-dihydro-2,6-dimethyl-4-(3-nitrophenyl)pyridine-3,5-dicarboxylate] | 49.0 | 51.4 | 3.4 | 0.9 | 51.1 ± 11.6 | 0.00011 | 0.00014
